Source: ChEMBL document CHEMBL1135703, “Synthesis and biological activity of a novel class of small molecular weight peptidomimetic competitive inhibitors of protein tyrosine phosphatase 1B” (2002)

What was measured:
[1] = target: T1, Tyrosine-protein phosphatase non-receptor type 1 (Rattus norvegicus) (UniProt P20417); experiment: Percent inhibition of Protein-tyrosine phosphatase 1 (PTP) assayed at 100 uM
T1 sequence (whole entry): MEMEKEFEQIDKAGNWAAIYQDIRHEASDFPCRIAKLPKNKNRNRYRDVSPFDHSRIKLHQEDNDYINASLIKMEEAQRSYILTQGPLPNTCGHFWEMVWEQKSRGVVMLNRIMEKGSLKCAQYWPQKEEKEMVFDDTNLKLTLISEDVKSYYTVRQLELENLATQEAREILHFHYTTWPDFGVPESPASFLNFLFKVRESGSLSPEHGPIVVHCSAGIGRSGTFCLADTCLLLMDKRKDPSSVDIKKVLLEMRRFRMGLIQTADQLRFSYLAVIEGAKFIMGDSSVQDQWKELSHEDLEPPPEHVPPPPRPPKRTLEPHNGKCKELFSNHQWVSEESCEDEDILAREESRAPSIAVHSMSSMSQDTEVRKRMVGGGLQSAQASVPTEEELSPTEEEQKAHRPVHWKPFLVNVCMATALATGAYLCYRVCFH

[2] = target: T2, Tyrosine-protein phosphatase non-receptor type 11 (Mus musculus) (UniProt P35235); experiment: (§1) Percent inhibition of Tyrosine phosphatase SHP2 SH2 domain containing PTP involved in insulin uM; conditions: concentration not given here
T2 sequence (whole entry): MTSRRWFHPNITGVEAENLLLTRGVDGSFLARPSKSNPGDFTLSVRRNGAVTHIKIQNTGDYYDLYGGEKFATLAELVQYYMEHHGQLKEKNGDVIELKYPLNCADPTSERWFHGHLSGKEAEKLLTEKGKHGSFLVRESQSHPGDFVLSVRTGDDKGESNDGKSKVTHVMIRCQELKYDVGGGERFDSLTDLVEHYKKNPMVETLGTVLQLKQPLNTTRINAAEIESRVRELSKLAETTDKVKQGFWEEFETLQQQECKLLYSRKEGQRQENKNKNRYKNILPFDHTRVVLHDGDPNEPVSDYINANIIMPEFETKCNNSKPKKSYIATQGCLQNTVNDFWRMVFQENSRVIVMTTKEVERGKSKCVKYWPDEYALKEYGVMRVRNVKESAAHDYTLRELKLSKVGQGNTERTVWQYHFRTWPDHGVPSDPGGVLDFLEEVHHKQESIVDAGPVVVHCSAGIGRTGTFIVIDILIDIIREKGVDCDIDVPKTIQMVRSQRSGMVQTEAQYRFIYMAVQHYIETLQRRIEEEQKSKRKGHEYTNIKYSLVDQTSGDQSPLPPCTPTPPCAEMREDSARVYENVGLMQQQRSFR

[3] = target: Receptor-type tyrosine-protein phosphatase F (Homo sapiens) (UniProt P10586); experiment: Percent inhibition of Protein-tyrosine phosphatase Lar assayed at 100 uM
[4] = target: T3, Tyrosine-protein phosphatase non-receptor type 1 (Homo sapiens) (UniProt P18031); experiment: Percent inhibition of Protein Tyrosine Phosphatase 1B (PTP 1B) assayed at 100 uM
T3 sequence (whole entry): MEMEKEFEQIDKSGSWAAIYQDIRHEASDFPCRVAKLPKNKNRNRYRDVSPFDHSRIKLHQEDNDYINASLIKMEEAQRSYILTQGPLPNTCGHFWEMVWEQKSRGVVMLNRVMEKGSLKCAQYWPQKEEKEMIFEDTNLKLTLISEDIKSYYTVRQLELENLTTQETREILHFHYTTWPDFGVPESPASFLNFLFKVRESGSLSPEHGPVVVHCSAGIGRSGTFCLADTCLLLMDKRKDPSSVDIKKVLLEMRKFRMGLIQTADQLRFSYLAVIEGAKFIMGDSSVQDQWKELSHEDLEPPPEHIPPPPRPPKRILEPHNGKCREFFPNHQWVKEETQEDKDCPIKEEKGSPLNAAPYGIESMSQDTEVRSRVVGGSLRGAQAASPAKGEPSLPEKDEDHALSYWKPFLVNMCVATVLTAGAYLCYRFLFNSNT

[5] = Uptake of 2-deoxyglucose into L-6 myocytes, measurements were taken in presence of insulin (+ins), assayed at 100 uM; type: functional
[6] = target: T2, Tyrosine-protein phosphatase non-receptor type 11 (Mus musculus); experiment: as §1; set-up: concentration or dose not given beside the values; conditions: concentration not given here
[7] = Uptake of 2-deoxyglucose into L-6 myocytes, measurements were taken in absence of insulin (basal), assayed at 100 uM; type: functional

Chain of Receptor-type tyrosine-protein phosphatase F (Homo sapiens) (P10586 whole entry): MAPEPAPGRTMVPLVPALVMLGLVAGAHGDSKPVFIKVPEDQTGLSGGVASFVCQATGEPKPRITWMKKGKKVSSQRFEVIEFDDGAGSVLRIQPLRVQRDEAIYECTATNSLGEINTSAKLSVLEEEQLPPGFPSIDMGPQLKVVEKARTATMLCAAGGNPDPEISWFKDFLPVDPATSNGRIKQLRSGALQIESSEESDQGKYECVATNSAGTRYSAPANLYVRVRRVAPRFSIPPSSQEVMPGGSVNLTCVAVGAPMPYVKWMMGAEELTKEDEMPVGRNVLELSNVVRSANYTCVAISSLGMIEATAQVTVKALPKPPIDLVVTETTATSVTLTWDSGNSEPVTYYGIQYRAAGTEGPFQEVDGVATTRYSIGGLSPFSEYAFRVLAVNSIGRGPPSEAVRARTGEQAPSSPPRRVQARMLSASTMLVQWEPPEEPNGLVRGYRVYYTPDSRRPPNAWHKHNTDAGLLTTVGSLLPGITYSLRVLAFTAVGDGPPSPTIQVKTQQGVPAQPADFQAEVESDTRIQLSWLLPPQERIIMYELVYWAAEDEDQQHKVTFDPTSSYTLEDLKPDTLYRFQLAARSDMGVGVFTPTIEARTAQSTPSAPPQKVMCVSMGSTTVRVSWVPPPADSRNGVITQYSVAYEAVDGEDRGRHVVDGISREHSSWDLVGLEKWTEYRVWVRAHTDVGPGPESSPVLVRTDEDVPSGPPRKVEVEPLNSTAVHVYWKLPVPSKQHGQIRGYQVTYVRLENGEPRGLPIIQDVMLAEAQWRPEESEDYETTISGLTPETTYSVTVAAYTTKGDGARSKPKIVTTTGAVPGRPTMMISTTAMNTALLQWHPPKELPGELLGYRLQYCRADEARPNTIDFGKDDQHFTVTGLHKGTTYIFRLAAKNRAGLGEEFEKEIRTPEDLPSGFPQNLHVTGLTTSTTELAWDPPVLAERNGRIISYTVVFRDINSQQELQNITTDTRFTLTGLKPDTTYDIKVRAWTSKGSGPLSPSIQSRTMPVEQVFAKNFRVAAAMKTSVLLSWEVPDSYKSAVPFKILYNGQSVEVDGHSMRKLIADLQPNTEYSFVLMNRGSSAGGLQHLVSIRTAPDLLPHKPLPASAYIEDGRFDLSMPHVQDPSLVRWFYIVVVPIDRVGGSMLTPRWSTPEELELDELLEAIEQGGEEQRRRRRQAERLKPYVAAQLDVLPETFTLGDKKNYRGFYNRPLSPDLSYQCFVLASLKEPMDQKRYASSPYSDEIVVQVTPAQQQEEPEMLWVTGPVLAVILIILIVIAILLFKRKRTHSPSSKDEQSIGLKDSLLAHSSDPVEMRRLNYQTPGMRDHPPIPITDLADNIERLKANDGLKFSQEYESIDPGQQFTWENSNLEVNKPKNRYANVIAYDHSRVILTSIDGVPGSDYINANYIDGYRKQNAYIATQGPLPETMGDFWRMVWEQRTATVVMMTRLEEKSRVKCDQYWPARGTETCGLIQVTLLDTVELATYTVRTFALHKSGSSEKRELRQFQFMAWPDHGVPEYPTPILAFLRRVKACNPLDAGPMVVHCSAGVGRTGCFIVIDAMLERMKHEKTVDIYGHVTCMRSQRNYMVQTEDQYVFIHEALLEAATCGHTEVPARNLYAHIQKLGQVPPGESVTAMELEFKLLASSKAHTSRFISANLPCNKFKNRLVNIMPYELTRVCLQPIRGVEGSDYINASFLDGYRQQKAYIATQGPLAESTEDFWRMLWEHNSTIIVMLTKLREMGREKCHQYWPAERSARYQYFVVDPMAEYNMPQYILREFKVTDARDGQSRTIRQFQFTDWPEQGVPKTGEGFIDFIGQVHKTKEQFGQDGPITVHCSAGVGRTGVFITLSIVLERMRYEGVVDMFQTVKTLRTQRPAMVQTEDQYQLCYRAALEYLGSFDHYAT

For `CCCCCNC(=O)C(Cc1ccc(OC(C(=O)O)C(=O)O)cc1)NC(=O)CCC(=O)O` (centres undefined), the inhibition [1] was 76%, the inhibition [2] was 8% and the inhibition [3] was 2%. It also gave an inhibition [4] of 80%.

For `CCCCCNC(=O)C(Cc1ccc(OS(=O)(=O)O)cc1)NC(=O)CCC(=O)O` (centres undefined), the inhibition [1] was 80%, the inhibition [2] was 6% and the inhibition [3] was 5%. The inhibition [4] was 51%.

With `CCCCCNC(=O)C(Cc1ccc(OCC(=O)O)c(C(=O)O)c1)NC(=O)[C@H](Cc1ccccc1)NC(=O)CCC(=O)O` (some centres undefined) the “2-deoxyglucose uptake, % of control” value [5] was 83%, the inhibition [6] was 10% and the inhibition [3] was 0%. For the same compound, the inhibition [4] was 93% and the “2-deoxyglucose uptake, % of control” value [7] was 105%.

In the case of `CCCCCNC(=O)C(Cc1ccc(OCC(=O)OC)c(C(=O)OC)c1)NC(=O)[C@H](Cc1ccccc1)NC(=O)CCC(=O)OC` (some centres undefined), the “2-deoxyglucose uptake, % of control” value [5] is reported as 77%, the inhibition [6] is reported as 0% and the inhibition [3] is reported as 3%. The inhibition [4] was 0% and the “2-deoxyglucose uptake, % of control” value [7] was 225%.

For `CCCCCNC(=O)C(Cc1ccc(OCC(=O)O)c(C(=O)O)c1)NC(=O)[C@H](Cc1ccccc1)NC(=O)OC(C)(C)C` (some centres undefined), the “2-deoxyglucose uptake, % of control” value [5] was 108%, the inhibition [1] was 84% and the inhibition [6] was 2%. The inhibition [3] was 0%, the inhibition [4] was 78% and the “2-deoxyglucose uptake, % of control” value [7] was 81%.
